Test results: ChEMBL document CHEMBL3526002, “Tissue distribution and identification of radioactivity components at elimination phase after oral administration of [¹⁴C]CS-1036, an α-amylase inhibitor, to rats” (Drug Metab Dispos, 2013)

Tests used:
Set-up in all cases: dose 5 mg/kg, dosed compound name [14C]CS-1036, route oral
Conditions in all cases: in vivo
Stomach = experiment: Drug uptake in albino F344/DuCrlCrlj rat stomach at 5 mg/kg, po after 168 hrs by liquid scintillation counting; assay type: ADME, organism-based
[1] = Drug uptake in albino F344/DuCrlCrlj rat eyeball assessed as ng equivalent of CS-1036 at 5 mg/kg, po after 8 hrs by liquid scintillation counting; assay type: ADME, organism-based
[2] = Drug uptake in albino F344/DuCrlCrlj rat bone marrow at 5 mg/kg, po after 336 hrs by liquid scintillation counting; assay type: ADME, organism-based
Zone of skin [3] = experiment: Drug uptake in albino F344/DuCrlCrlj rat skin at 5 mg/kg, po after 336 hrs by liquid scintillation counting; assay type: ADME, organism-based
Kidney = experiment: Drug uptake in albino F344/DuCrlCrlj rat kidney at 5 mg/kg, po after 8 hrs by liquid scintillation counting; assay type: ADME, organism-based
Lung = experiment: Drug uptake in albino F344/DuCrlCrlj rat lung assessed as ng equivalent of CS-1036 at 5 mg/kg, po after 168 hrs by liquid scintillation counting; assay type: ADME, organism-based
[4] = Drug uptake in albino F344/DuCrlCrlj rat trachea assessed as ng equivalent of CS-1036 at 5 mg/kg, po after 4 hrs by liquid scintillation counting; assay type: ADME, organism-based
Cerebellum [5] = experiment: Drug uptake in albino F344/DuCrlCrlj rat cerebellum assessed as ng equivalent of CS-1036 at 5 mg/kg, po after 1 hr by liquid scintillation counting; assay type: ADME, organism-based
Spleen = experiment: Drug uptake in albino F344/DuCrlCrlj rat spleen at 5 mg/kg, po after 8 hrs by liquid scintillation counting; assay type: ADME, organism-based
Zone of skin [6] = experiment: Drug uptake in albino F344/DuCrlCrlj rat skin assessed as ng equivalent of CS-1036 at 5 mg/kg, po after 336 hrs by liquid scintillation counting; assay type: ADME, organism-based
[7] = Drug uptake in albino F344/DuCrlCrlj rat bone marrow assessed as ng equivalent of CS-1036 at 5 mg/kg, po after 168 hrs by liquid scintillation counting; assay type: ADME, organism-based
[8] = Drug uptake in albino F344/DuCrlCrlj rat skeletal muscle at 5 mg/kg, po after 4 hrs by liquid scintillation counting; assay type: ADME, organism-based, Muscle tissue
Cerebellum [9] = experiment: Drug uptake in albino F344/DuCrlCrlj rat cerebellum assessed as ng equivalent of CS-1036 at 5 mg/kg, po after 336 hrs by liquid scintillation counting; assay type: ADME, organism-based
[10] = Drug uptake in albino F344/DuCrlCrlj rat epididymis assessed as ng equivalent of CS-1036 at 5 mg/kg, po after 8 hrs by liquid scintillation counting; assay type: ADME, organism-based
Thymus = experiment: Drug uptake in albino F344/DuCrlCrlj rat thymus assessed as ng equivalent of CS-1036 at 5 mg/kg, po after 8 hrs by liquid scintillation counting; assay type: ADME, organism-based
Harderian gland = experiment: Drug uptake in albino F344/DuCrlCrlj rat harderian gland at 5 mg/kg, po after 72 hrs by liquid scintillation counting; assay type: ADME, organism-based
Plasma = experiment: Drug uptake in albino F344/DuCrlCrlj rat plasma assessed as ng equivalent of CS-1036 at 5 mg/kg, po after 72 hrs by liquid scintillation counting; assay type: ADME, organism-based

- Radiolabel recovery (Stomach): 23.9 ngequiv/g
- Radiolabel recovery [1]: 18.9 ngequiv/g
- Radiolabel recovery [2]: 26.2 ngequiv/g
- Radiolabel recovery (Zone of skin [3]): 24.9 ngequiv/g
- Radiolabel recovery (Kidney): 1320 ngequiv/g
- Radiolabel recovery (Lung): 8.2 ngequiv/g
- Radiolabel recovery [4]: 10.4 ngequiv/g
- Radiolabel recovery (Cerebellum [5]): 0.79 ngequiv/g
- Radiolabel recovery (Spleen): 84.8 ngequiv/g
- Radiolabel recovery (Zone of skin [6]): 16.4 ngequiv/g
- Radiolabel recovery [7]: 23 ngequiv/g
- Radiolabel recovery [8]: 41.4 ngequiv/g
- Radiolabel recovery (Cerebellum [9]): 3.05 ngequiv/g
- Radiolabel recovery [10]: 37.8 ngequiv/g
- Radiolabel recovery (Thymus): 47 ngequiv/g
- Radiolabel recovery (Harderian gland): 119 ngequiv/g
- Radiolabel recovery (Plasma): 8 ngequiv/ml
Structure (SMILES): C[C@H]1O[C@@H](O[C@H]2[C@H](O)[C@@H](O)[C@@H](O[14C@H]3[14C@H](O)[14CH2]N[14C@@H]3[14CH2]O)O[C@@H]2CO)[C@H](O)[C@@H](O)[C@@H]1O
